Measured values published in US6774235B2, “Trisubstituted 1,3,5-triazine derivatives” (Janssen Pharmaceutica N.V., priority 1998, dated 2004).

Legend:
HIV-1 (wildtype IIIB) = assay: microbe, parasite or virus in culture; format: cell-based; conditions: Human immunodeficiency virus 1, MT4; dose achieving 50% protection of HIV-1 (IIIB) infected MT-4 cells, MTT, OD 540 nm
Procedure: (§1) A rapid, sensitive and automated assay procedure was used for the in vitro evaluation of anti-HIV agents. An HIV-1 (wildtype IIIB) transformed T4-cell line, MT-4, which was previously shown (Koyanagi et al., Int. J Cancer, 36, 445-451, 1985) to be highly susceptible to and permissive for HIV infection, served as the target cell line. Inhibition of the HIV-induced cytopathic effect was used as the end point. […] The percent protection achieved by the compound in HIV-infected cells was calculated by the following formula: [formula]
(§2) whereby (ODT)HIV is the optical density measured with a given concentration of the test compound in HIV-infected cells; (ODC)HIV is the optical density measured for the control untreated HIV-infected cells; (ODC)MOCK is the optical density measured for the control untreated mock-infected cells; all optical density values were determined at 540 nm. […] The ratio of CC50 to IC50 was defined as the selectivity index (SI).

[1] = Cytotoxicity in mock-infected MT-4 cells (MTT); conditions: human, mock-infected MT-4 cells
Procedure: as §1, §2

SMILES	IC50 (HIV-1 (wildtype IIIB)) [nM]	CC50 [1] [nM]
Cc1cc(Br)cc(Cl)c1Oc1nc(N)nc(Nc2ccc(C#N)cc2)n1 [Compound 33, 4-[[4-amino-6-(4-bromo-2-chloro-6-methylphenoxy)-1,3,5-triazin-2-yl]amino]benzonitrile]	2	> 10000
CC(=O)c1cc(C)c(Oc2nc(N)nc(Nc3ccc(C#N)cc3)n2)c(C)c1 [Compound 35, 4-[[4-(4-acetyl-2,6-dimethylphenoxy)-6-amino-1,3,5-triazin-2-yl]amino]benzonitrile]	1	32100
N#Cc1ccc(Nc2nc(N)nc(Oc3c(Br)cc(Br)cc3Br)n2)cc1 [Compound 40, 4-[[4-amino-6-(2,4,6-tribromophenoxy)-1,3,5-triazin-2-yl]amino]benzonitrile]	5	> 10000
Cc1cc([N+](=O)[O-])cc(C)c1Oc1nc(N)nc(Nc2ccc(C#N)cc2)n1 [Compound 41, 4-[[4-amino-6-(4-nitro-2,6-dimethylphenoxy)-1,3,5-triazin-2-yl]amino]benzonitrile]	2	12200
N#Cc1ccc(Nc2nc(N)nc(Sc3ccc(Cl)cc3Cl)n2)cc1 [Compound 54, 4-[[4-amino-6-[(2,4-dichlorophenyl)thio]-1,3,5-triazin-2-yl]amino]benzonitrile]	4	57300
N#Cc1ccc(Nc2nc(N)nc(Oc3cccc4[nH]ccc34)n2)cc1 [Compound 83]	473	59600
CC(=O)c1cc(C)c2c(c1Oc1nc(N)nc(Nc3ccc(C#N)cc3)n1)CCC2 [Compound 84, 4-[[4-[(5-acetyl-2,3-dihydro-7-methyl-1H-inden-4-yl)oxy]-6-amino-1,3,5-triazin-2-yl]amino]benzonitrile]	1	54100

More lines, main results first:

IC50 (HIV-1 (wildtype IIIB)) [nM]	SMILES	CC50 [1] [nM]
3	Cc1cc(Br)cc(Cl)c1Nc1nc(N)nc(Nc2ccc(C#N)cc2)n1 [Compound 63, 4-[[4-amino-6-[(4-bromo-2-chloro-6-methylphenyl)amino]-1,3,5-triazin-2-yl]amino]-benzonitrile]	48000
1	Cc1cc(C)c(Nc2nc(N)nc(Nc3ccc(C#N)cc3)n2)c(Cl)c1 [Compound 65, 4-[[4-amino-6-[(2-chloro-4,6-dimethylphenyl)amino]-1,3,5-triazin-2-yl]amino]-benzonitrile]	48500
10	N#Cc1ccc(Nc2nc(N)nc(Nc3c(Cl)cc(Cl)cc3C(F)(F)F)n2)cc1 [Compound 71, 4-[[4-amino-6-[[2,4-dichloro-6-(trifluoromethyl)phenyl]amino]-1,3,5-triazin-2-yl]-amino]benzonitrile]	8200
3	CC(C)c1cc(Br)c(Nc2nc(N)nc(Nc3ccc(C#N)cc3)n2)c(Br)c1 [Compound 77, 4-[[4-amino-6-[[2,6-dibromo-4-(1-methylethyl)phenyl]amino]-1,3,5-triazin-2-yl]-amino]benzonitrile]	47000
